Results reported in patent US8507488B2, “Fused nitrogen containing heterocycles and compositions thereof as kinase inhibitors” (IRM LLC, priority 2008, dated 2013).

Experiments:
Tel-TrkA = target: T1, Tel-TrkA (Homo sapiens, UniProt P04629); experiment: Inhibition of proliferation of Ba/F3 cells expressing Tel-TrkA (BaF3/Tel-TrkA, luciferase/Bright Glo readout); type: cell-based; settings: read-out: Ba/F3 Tel-TrkA IC 50
T1 construct: dimerization domain of Tel (ETV6) transcription factor (fusion partner, human ETV6 P41212); expressed in transfected cells; host or cells: luciferase expressing Ba/F3 murine hematopoietic progenitor cells; the other entry of the earlier key: ETV6 (P41212, Transcription factor ETV6)
Summary of the method: (§1)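 Luciferase-expressing murine Ba/F3 cells transformed with human Tel-TrkA or Tel-TrkB, plated at 2000 cells/well in IL3-free RPMI/10% FBS. Exposed to 12 concentrations of 3-fold serially diluted compound for 48 hours at 37° C, 5% CO2. Bright Glo luminescence read-out, with IC50 from linear regression of percent inhibition.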

Tel-TrkB = target: T2, Tel-TrkB (Homo sapiens, UniProt Q16620); experiment: Inhibition of proliferation of Ba/F3 cells expressing Tel-TrkB (BaF3/Tel-TrkB); type: cell-based; settings: Ba/F3 Tel-TrkB cells; read-out: Ba/F3 Tel-TrkB IC 50
T2 construct: dimerization domain of Tel (ETV6) transcription factor (fusion partner, human ETV6 P41212); expressed in transfected cells; host or cells: luciferase expressing Ba/F3 murine hematopoietic progenitor cells; the other entry of the earlier key: ETV6 (P41212, Transcription factor ETV6)
Summary of the method: as §1

Tel-TrkC = target: T3, Tel-TrkC (Homo sapiens, UniProt Q16288); experiment: Inhibition of proliferation of Ba/F3 cells expressing Tel-TrkC (BaF3/Tel-TrkC); type: cell-based; settings: read-out: Ba/F3 Tel-TrkC IC 50
T3 construct: The cells also express luciferase as the viability read-out; it is not fused to the kinase; P41212 (Transcription factor ETV6)
Experimental: Test compounds were dissolved in DMSO (10 mM) and transferred into 1.4 mL flat bottom or V-shaped Matrix tubes carrying a unique 2D matrix chip by individual compound hubs. The numbers of these chips were distinctively linked to the individual compound identification numbers. The stock solutions were stored at −20° C. if not used immediately. For the test procedure the vials were defrosted and identified by a scanner whereby a working sheet is generated that guides the subsequent working steps.
Compound dilutions were made in 384 well plates. This format enabled the assay of maximally 28 individual test compounds at 12 concentrations (single points) including 2 reference compounds. The dilution protocol included the production of pre-dilution plates, master plates and assay plates: • Compound plates: 30 μL of individual compound (10 mM) DMSO solution including standard compound were transferred into columns 1 and 13 of a 384 well plate. 20 μL of DMSO were added to the rest of the wells and the compounds were serially diluted (1:3) by transferring 10 μL from a well in column 1 or 13 to the next well in column 2 or 14 respectively and successively with the help of a Minitrack robot. • Assay plates: Identical assay plates were then prepared by adding […] each of compound dilutions of the compound plates into 384-well “assay plates”. In the following the compounds were mixed with 50 μL of assays components (cells or enzyme) and tested for their inhibitory activity.
Compounds of Formula (I) were tested for their antiproliferative effect on Ba/F3 cells expressing either Tel-TrkA, Tel-TrkB or Tel-TrkC and an additional panel of 34 selected diverse kinases activated by fusion to the dimerizing partners Bcr or Tel (Abl, A1K, BMX, EphA3, EphB2, FGFR2, FGFR3, FGFR4, FGR, FLT1, FLT3, FLT4, FMS, IGF1R, InsR, JAK1, JAK2, JAK3, KDR, Kit, Lck, Lyn, MER, MET, PDGFRb, RET, RON, Ros-1, Src, Aurora, TIE2, TYK2, Tie1, ZAP70). The antiproliferative effect of these compounds on the different cell lines and on the non transformed cells were tested at 12 different concentrations of 3-fold serially diluted compounds in 384 well plates as described above (in media lacking IL3). The IC50 values of the compounds the different cell lines were determined from dose response curves.
The cell line used is the luciferase expressing Ba/F3 murine hematopoietic progenitor cell line transformed with human Tel-TrkA, Tel-TrkB or Tel-TrkC cDNAs (Ba/F3 EN A/B/C). These cells maintained in RPMI/10% fetal bovine serum (RPMI/FCS) supplemented with penicillin 50 mg/mL, streptomycin 50 mg/mL and L-glutamine […]. Untransformed Ba/F3 cells were similarly maintained with the addition 5 ng/ml of murine recombinant IL3. 50 μl of a Ba/F3 or Ba/F3 EN A/B/C cell suspension were plated in Greiner 384 well microplates (white)) at a density of 2000 cells per well. 50 nl of serially diluted test compound (10-0.0001 mM in DMSO solution) is added to each well. The cells were incubated for 48 hours at 37° C., 5% CO2. 25 μl of Bright Glo® (Promega) luciferase substrate is added to each well. The emited luminiscence is quantified using the ACQUEST™ luminescence system (Molecular Devices). IC50 values were calculated by linear regression analysis of the percentage inhibition of each compound at 12 concentrations.

[1] = target: T4, full length rTrkA and mNGF (Rattus norvegicus, UniProt P35739); experiment: Inhibition of proliferation of Ba/F3 cells co-expressing full length rTrkA and mNGF (BaF3/TrkA-NFG); type: cell-based; settings: BaF3 TRKA-NGF cells, CTG readout
T4 construct: co-expressing full length rTrkA and mNGF; expressed in transfected cells; host or cells: Ba/F3 cells

parental BaF3 cells = experiment: Proliferation of parental (untransformed) Ba/F3 cells maintained with IL3; type: cell-based, murine; settings: Mus musculus, BaF3, parental Ba/F3 cells; read-out: Ba/F3 IC 50
Summary of the method: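 Untransformed murine Ba/F3 cells kept in RPMI/10% FCS with 5 ng/ml murine IL3, plated at 2000 cells/well and exposed to 12 concentrations of compound for 48 h at 37 °C. Viability read by Bright-Glo luciferase luminescence; IC50 from linear regression of % inhibition.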

KM12 luc = KM12 luc cell proliferation assay (Table 8); type: cell-based; settings: KM12 luc cells; read-out: KM12 luc IC 50

T1 sequence (P04629 510-796 limits assumed): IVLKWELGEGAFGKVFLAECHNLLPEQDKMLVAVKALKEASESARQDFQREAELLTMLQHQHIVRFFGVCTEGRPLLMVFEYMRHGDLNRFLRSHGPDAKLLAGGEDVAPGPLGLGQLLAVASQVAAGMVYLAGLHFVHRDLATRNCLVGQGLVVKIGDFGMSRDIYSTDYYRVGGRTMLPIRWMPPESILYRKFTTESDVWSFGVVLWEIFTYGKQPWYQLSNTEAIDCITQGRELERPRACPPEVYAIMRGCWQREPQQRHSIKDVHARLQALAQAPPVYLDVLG
T4 sequence (P35739 33-799): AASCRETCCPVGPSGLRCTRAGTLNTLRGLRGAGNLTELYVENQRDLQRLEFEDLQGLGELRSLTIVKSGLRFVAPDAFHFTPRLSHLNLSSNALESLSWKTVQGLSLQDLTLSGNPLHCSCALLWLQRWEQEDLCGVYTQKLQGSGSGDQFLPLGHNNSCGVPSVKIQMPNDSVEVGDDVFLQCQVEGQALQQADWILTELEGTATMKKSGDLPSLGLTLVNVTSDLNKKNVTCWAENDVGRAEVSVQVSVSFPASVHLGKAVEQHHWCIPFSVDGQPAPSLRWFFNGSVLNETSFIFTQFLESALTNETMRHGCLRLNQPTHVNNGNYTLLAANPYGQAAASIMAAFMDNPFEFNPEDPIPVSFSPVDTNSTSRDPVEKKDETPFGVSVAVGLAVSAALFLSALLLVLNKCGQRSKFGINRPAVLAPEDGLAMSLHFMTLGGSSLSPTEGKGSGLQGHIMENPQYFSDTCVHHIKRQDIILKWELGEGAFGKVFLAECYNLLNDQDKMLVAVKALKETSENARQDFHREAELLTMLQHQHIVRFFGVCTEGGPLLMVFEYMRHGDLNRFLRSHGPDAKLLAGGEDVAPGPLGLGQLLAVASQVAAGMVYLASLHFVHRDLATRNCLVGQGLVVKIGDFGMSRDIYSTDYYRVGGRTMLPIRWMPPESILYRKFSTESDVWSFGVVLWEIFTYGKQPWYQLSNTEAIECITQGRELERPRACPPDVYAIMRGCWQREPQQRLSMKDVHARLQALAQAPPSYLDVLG
T4 sequence (P01139 122-241 partner): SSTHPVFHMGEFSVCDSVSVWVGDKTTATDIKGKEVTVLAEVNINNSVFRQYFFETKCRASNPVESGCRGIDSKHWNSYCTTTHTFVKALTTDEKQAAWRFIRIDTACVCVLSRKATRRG
T2 sequence (Q16620 538-822 limits assumed): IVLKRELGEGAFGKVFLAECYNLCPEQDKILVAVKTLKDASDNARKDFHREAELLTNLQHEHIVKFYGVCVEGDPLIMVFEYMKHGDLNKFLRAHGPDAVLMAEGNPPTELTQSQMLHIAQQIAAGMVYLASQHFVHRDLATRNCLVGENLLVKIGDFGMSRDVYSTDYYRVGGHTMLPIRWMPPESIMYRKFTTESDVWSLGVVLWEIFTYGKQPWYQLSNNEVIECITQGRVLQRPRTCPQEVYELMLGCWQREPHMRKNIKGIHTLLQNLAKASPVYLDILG
T3 sequence (Q16288 whole entry, the tested form may be a part): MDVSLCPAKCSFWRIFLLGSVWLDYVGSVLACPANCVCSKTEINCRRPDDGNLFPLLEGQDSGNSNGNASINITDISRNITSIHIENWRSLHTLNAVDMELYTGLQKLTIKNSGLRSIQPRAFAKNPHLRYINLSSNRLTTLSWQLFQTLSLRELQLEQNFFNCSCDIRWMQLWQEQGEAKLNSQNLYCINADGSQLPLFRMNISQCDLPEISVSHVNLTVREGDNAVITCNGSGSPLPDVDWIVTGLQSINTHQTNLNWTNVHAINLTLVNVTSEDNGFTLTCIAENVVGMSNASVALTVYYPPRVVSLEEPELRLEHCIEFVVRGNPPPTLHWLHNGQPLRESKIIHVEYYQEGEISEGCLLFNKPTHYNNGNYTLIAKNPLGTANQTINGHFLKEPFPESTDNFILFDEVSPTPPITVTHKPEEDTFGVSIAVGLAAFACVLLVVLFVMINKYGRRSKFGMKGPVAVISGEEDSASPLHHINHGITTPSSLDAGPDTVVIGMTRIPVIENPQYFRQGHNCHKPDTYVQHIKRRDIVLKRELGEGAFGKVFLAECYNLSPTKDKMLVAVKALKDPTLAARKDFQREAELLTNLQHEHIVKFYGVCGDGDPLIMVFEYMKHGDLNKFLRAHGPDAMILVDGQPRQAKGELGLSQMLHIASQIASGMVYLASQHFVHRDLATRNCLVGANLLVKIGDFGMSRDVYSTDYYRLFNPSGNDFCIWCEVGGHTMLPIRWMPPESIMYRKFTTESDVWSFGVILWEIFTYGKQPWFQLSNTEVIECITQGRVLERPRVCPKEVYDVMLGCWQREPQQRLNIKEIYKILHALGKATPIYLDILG

| Compound | IC50 (Tel-TrkA) | IC50 (Tel-TrkB) | IC50 (Tel-TrkC) | BaF3 TRKA-NGF CTG IC 50 [1] | IC50 (parental BaF3 cells) | IC50 (KM12 luc) |
| --- | --- | --- | --- | --- | --- | --- |
| N#Cc1cc(-c2cnc3ccc(N4CCCC4c4cc(F)ccc4F)nn23)ccc1N1CCOCC1 (stereo not drawn) [Table 5-Compound 2] | 26 nM | 15 nM | 8.4 nM | 49 nM | 6170 nM | 29 nM |
| Fc1cccc(C2CCCN2c2ccc3ncc(-c4csc(N5CCCCC5)n4)n3n2)c1 (stereo not drawn) [Table 3-Compound 6] | 360 nM | 760 nM | 180 nM | 540 nM | > 10000 nM | 380 nM |
| N#Cc1cccc(-n2cnc3ccc(N4C(=O)CSC4c4cc(F)ccc4F)nc32)c1 (stereo not drawn) [Table 1-Compound 5] | 5670 nM | 4170 nM | 2610 nM | 3580 nM | > 10000 nM | 2290 nM |
| Fc1cccc(C2CCCCN2c2ccc3ncc(-c4ccc(N5CCOCC5)nc4)n3n2)c1 (stereo not drawn) [Table 3-Compound 58] | 44 nM | 49 nM | 14 nM | 108 nM | 7650 nM | 34 nM |
| N#Cc1cccc(-n2cnc3ccc(N4CCSC4c4cc(F)ccc4F)nc32)c1 (stereo not drawn) [Table 1-Compound 3] | 28 nM | 22 nM | 18 nM | 450 nM | > 10000 nM | 37 nM |
| Fc1cccc(C2CCCN2c2ccc3ncc(-c4cncc(Cl)n4)n3n2)c1 (stereo not drawn) [Table 3-Compound 10] | 200 nM | 100 nM | 40 nM | 180 nM | > 10000 nM | 94 nM |
| N#Cc1cccc(-n2cnc3ccc(N4CCCC4c4cccc(F)c4)nc32)c1 (stereo not drawn) [Table 1-Compound 1] | 210 nM | 150 nM | 69 nM | 680 nM | 16000 nM | 230 nM |
| N#Cc1cccc(-c2cnc3ccc(N4CCC(=O)N4c4cccc(F)c4)nn23)c1 [Table 3-Compound 34] | 1200 nM | 400 nM | 130 nM | 500 nM | > 10000 nM | 10 nM |
| CC1(c2cccc(F)c2)CCCN1c1ccc2ncc(-c3ccc(C#N)cc3)n2n1 (stereo not drawn) [Table 3-Compound 91] | 298 nM | 129 nM | 33 nM | 720 nM | 8410 nM | 84 nM |
| N#Cc1cccc(-c2cnc3ccc(N4CCCC4c4ccccc4)nn23)c1 (stereo not drawn) [Table 3-Compound 54] | 86 nM | 41 nM | 17 nM | 111 nM | > 10000 nM | 94 nM |
| C[C@H]1CN(c2ccc3ncc(-c4cccc(C#N)c4)n3n2)[C@H](c2ccccc2)C1(F)F [Table 3-Compound 52] | 12 nM | 7.7 nM | 4 nM | 22 nM | > 10000 nM | 6.5 nM |
| Fc1cccc(C2CCCN2c2ccc3ncc(-c4cncc(-n5ccnc5)n4)n3n2)c1 (stereo not drawn) [Table 3-Compound 11] | 87 nM | 56 nM | 17 nM | 74 nM | > 10000 nM | 36 nM |
| N#Cc1ccc(-c2cnc3ccc(N4CCCC4c4cc(F)ccc4F)nn23)cc1OCCN1CCOCC1 (stereo not drawn) [Table 5-Compound 17] | 6.4 nM | 15 nM | 3.1 nM | 34 nM | > 10000 nM | 8.8 nM |
| CN1CCC(Oc2cc(-c3cnc4ccc(N5CCCC5c5cc(F)ccc5F)nn34)ccc2C#N)C1 (stereo not drawn) [Table 5-Compound 22] | 132 nM | 88 nM | 27 nM | 316 nM | 2250 nM | 99 nM |
| N#Cc1ccc(-c2cnc3ccc(N4CCCC4c4cc(F)ccc4F)nn23)cc1N1CCC(N2CCOCC2)CC1 (stereo not drawn) [Table 5-Compound 13] | 3.5 nM | 35 nM | 1.7 nM | 5.3 nM | 4840 nM | 7.5 nM |
| O=C(c1cccc(-c2cnc3ccc(N4CCCC4c4cccc(F)c4)nn23)n1)N1CCC(O)CC1 (stereo not drawn) [Table 7-Compound 158] | 65 nM | 52 nM |  | 87 nM | > 11000 nM | 19 nM |
| Cc1cnc(-c2cccc(-c3cnc4ccc(N5CCCC5c5cccc(F)c5)nn34)n2)[nH]1 (stereo not drawn) [Table 7-Compound 3] | 6.9 nM | 6.6 nM |  | 19 nM | 3870 nM | 17 nM |
| O=C(NCCO)C1CCN(c2cccc(-c3cnc4ccc(N5CCOCC5c5cccc(F)c5)nn34)n2)CC1 (stereo not drawn) [Table 7-Compound 12] | 6.1 nM | 6.7 nM |  | 8.1 nM | > 10000 nM | 1.2 nM |
